Data: patent US20260027116A1, “Methods of Treating Chronic Graft-Versus-Host Disease Following Allogeneic Hematopoietic Stem Cell Transplantation” (Kadmon Corporation, LLC, priority 2022, published 2026)

Tested on: patients with cGVHD
Conditions: Cohort 1 200 mg QD
Procedure: All responses were assessed by the investigators.
Reported Adverse Events. […] All-cause mortality data collected during the study were assessed for all enrolled participants. Disease progression related death was not reported as AE.
Number of Participants With Treatment-emergent Adverse Events (TEAEs), and Treatment-emergent Serious Adverse Events (TESAEs). […] TEAEs included both SAEs and non-SAEs. […] Analysis was performed on safety population which included all participants who received at least 1 dose of study medication.

For `CC(C)NC(=O)COc1cccc(-c2nc(Nc3ccc4[nH]ncc4c3)c3ccccc3n2)c1` [Belumosudil, 2-{3-[4-(1H-indazol-5-ylamino)-2-quinazolinyl]phenoxy}-N-(propan-2-yl) acetamide], the “Grade ≥3 Lung infection or pneumonia, No. (%)” value was 1 (6), the “Graft versus host disease in gastrointestinal tract: # Events” value was 1 and the “Graft versus host disease in gastrointestinal tract: Affected/At Risk (%)” value was 1/17 (5.88%). The “Gynaecomastia: # Events” value was 0, the “Gynaecomastia: Affected/At Risk (%)” value was 0/17 (0%) and the “Haematuria: # Events” value was 1. For the same compound, the “Haematuria: Affected/At Risk (%)” value was 1/17 (5.88%), the “Hair growth abnormal: # Events” value was 1 and the “Hair growth abnormal: Affected/At Risk (%)” value was 1/17 (5.88%). For the same compound, the “Headache: # Events” value was 4, the “Headache: Affected/At Risk (%)” value was 4/17 (23.53%) and the “Hodgkin's disease recurrent: # Events” value was 1. For the same compound, the “Hodgkin's disease recurrent: Affected/At Risk (%)” value was 1/17 (5.88%), the “Hordeolum: # Events” value was 1 and the “Hordeolum: Affected/At Risk (%)” value was 1/17 (5.88%). For the same compound, the “Hot flush: # Events” value was 1, the “Hot flush: Affected/At Risk (%)” value was 1/17 (5.88%) and the “Hyperglycemia: # Events” value was 2. For the same compound, the “Hyperglycemia: Affected/At Risk (%)” value was 2/17 (11.76%), the “Hyperhidrosis: # Events” value was 0 and the “Hyperhidrosis: Affected/At Risk (%)” value was 0/17 (0%). For the same compound, the “Hyperkalaemia: # Events” value was 7, the “Hyperkalaemia: Affected/At Risk (%)” value was 3/17 (17.65%) and the “Hypertension: # Events” value was 8. The “Hypertension: Affected/At Risk (%)” value was 5/17 (29.41%), the “Hyperthyroidism: # Events” value was 0 and the “Hyperthyroidism: Affected/At Risk (%)” value was 0/17 (0%). The “Hypertriglyceridaemia: # Events” value was 0, the “Hypertriglyceridaemia: Affected/At Risk (%)” value was 0/17 (0%) and the “Hyperuricaemia: # Events” value was 6. For the same compound, the “Hyperuricaemia: Affected/At Risk (%)” value was 1/17 (5.88%), the “Hypoaesthesia: # Events” value was 2 and the “Hypoaesthesia: Affected/At Risk (%)” value was 1/17 (5.88%). For the same compound, the “Hypocalcaemia: # Events” value was 0, the “Hypocalcaemia: Affected/At Risk (%)” value was 0/17 (0%) and the “Hypogonadism: # Events” value was 1. The “Hypogonadism: Affected/At Risk (%)” value was 1/17 (5.88%), the “Hypokalaemia: # Events” value was 1 and the “Hypokalaemia: Affected/At Risk (%)” value was 1/17 (5.88%). The “Hypomagnesaemia: # Events” value was 1, the “Hypomagnesaemia: Affected/At Risk (%)” value was 1/17 (5.88%) and the “Hyponatraemia: # Events” value was 1. For the same compound, the “Hyponatraemia: Affected/At Risk (%)” value was 1/17 (5.88%), the “Hypophosphataemia: # Events” value was 1 and the “Hypophosphataemia: Affected/At Risk (%)” value was 1/17 (5.88%). For the same compound, the “Hypothermia: # Events” value was 0, the “Hypothermia: Affected/At Risk (%)” value was 0/17 (0%) and the “Hypothyroidism: # Events” value was 2. The “Hypothyroidism: Affected/At Risk (%)” value was 1/17 (5.88%), the “Hypoxia: # Events” value was 1 and the “Hypoxia: Affected/At Risk (%)” value was 1/17 (5.88%). For the same compound, the “Impaired healing: # Events” value was 1, the “Impaired healing: Affected/At Risk (%)” value was 1/17 (5.88%) and the “Influenza like illness: # Events” value was 1. For the same compound, the “Influenza like illness: Affected/At Risk (%)” value was 1/17 (5.88%), the “Influenza: # Events” value was 2 and the “Influenza: Affected/At Risk (%)” value was 2/17 (11.76%). For the same compound, the “Insomnia: # Events” value was 0, the “Insomnia: Affected/At Risk (%)” value was 0/17 (0%) and the “Irritability: # Events” value was 1. For the same compound, the “Irritability: Affected/At Risk (%)” value was 1/17 (5.88%), the “Joint range of motion decreased: # Events” value was 0 and the “Joint range of motion decreased: Affected/At Risk (%)” value was 0/17 (0%). The “Lacrimation increased: # Events” value was 0, the “Lacrimation increased: Affected/At Risk (%)” value was 0/17 (0%) and the “Leukaemia recurrent: # Events” value was 1. The “Leukaemia recurrent: Affected/At Risk (%)” value was 1/17 (5.88%), the “Leukocytosis: # Events” value was 1 and the “Leukocytosis: Affected/At Risk (%)” value was 1/17 (5.88%). The “Ligament sprain: # Events” value was 1, the “Ligament sprain: Affected/At Risk (%)” value was 1/17 (5.88%) and the “Limb injury: # Events” value was 1. The “Limb injury: Affected/At Risk (%)” value was 1/17 (5.88%), the “Macular degeneration: # Events” value was 0 and the “Macular degeneration: Affected/At Risk (%)” value was 0/17 (0%). For the same compound, the “Migraine: # Events” value was 0, the “Migraine: Affected/At Risk (%)” value was 0/17 (0%) and the “Muscle spasms: # Events” value was 1. For the same compound, the “Muscle spasms: Affected/At Risk (%)” value was 1/17 (5.88%), the “Muscle spasticity: # Events” value was 1 and the “Muscle spasticity: Affected/At Risk (%)” value was 1/17 (5.88%). The “Muscular weakness: # Events” value was 6, the “Muscular weakness: Affected/At Risk (%)” value was 4/17 (23.53%) and the “Musculoskeletal chest pain: # Events” value was 1. The “Musculoskeletal chest pain: Affected/At Risk (%)” value was 1/17 (5.88%), the “Myalgia: # Events” value was 2 and the “Myalgia: Affected/At Risk (%)” value was 1/17 (5.88%). For the same compound, the “Nail disorder: # Events” value was 1, the “Nail disorder: Affected/At Risk (%)” value was 1/17 (5.88%) and the “Nasal congestion: # Events” value was 3. The “Nasal congestion: Affected/At Risk (%)” value was 3/17 (17.65%), the “Nausea: # Events” value was 10 and the “Nausea: Affected/At Risk (%)” value was 6/17 (35.29%). The “Neck pain: # Events” value was 1, the “Neck pain: Affected/At Risk (%)” value was 1/17 (5.88%) and the “Nephrotic syndrome: # Events” value was 1. The “Nephrotic syndrome: Affected/At Risk (%)” value was 1/17 (5.88%), the “Neuropathy peripheral: # Events” value was 0 and the “Neuropathy peripheral: Affected/At Risk (%)” value was 0/17 (0%). The “Neutrophil count decreased: # Events” value was 1, the “Neutrophil count decreased: Affected/At Risk (%)” value was 1/17 (5.88%) and the “Nocturia: # Events” value was 1. The “Nocturia: Affected/At Risk (%)” value was 1/17 (5.88%), the “Non-cardiac chest pain: # Events” value was 0 and the “Non-cardiac chest pain: Affected/At Risk (%)” value was 0/17 (0%). For the same compound, the “Obesity: # Events” value was 2, the “Obesity: Affected/At Risk (%)” value was 2/17 (11.76%) and the “Oedema peripheral: # Events” value was 3. The “Oedema peripheral: Affected/At Risk (%)” value was 3/17 (17.65%), the “Oedema: # Events” value was 0 and the “Oedema: Affected/At Risk (%)” value was 0/17 (0%). For the same compound, the “Oesophageal ulcer: # Events” value was 0, the “Oesophageal ulcer: Affected/At Risk (%)” value was 0/17 (0%) and the “Oral candidiasis: # Events” value was 3. The “Oral candidiasis: Affected/At Risk (%)” value was 2/17 (11.76%), the “Oropharyngeal pain: # Events” value was 1 and the “Oropharyngeal pain: Affected/At Risk (%)” value was 1/17 (5.88%). For the same compound, the “Orthopnoea: # Events” value was 1, the “Orthopnoea: Affected/At Risk (%)” value was 1/17 (5.88%) and the “Osteonecrosis: # Events” value was 1. The “Osteonecrosis: Affected/At Risk (%)” value was 1/17 (5.88%), the “Osteopenia: # Events” value was 0 and the “Osteopenia: Affected/At Risk (%)” value was 0/17 (0%). For the same compound, the “Osteoporosis: # Events” value was 0, the “Osteoporosis: Affected/At Risk (%)” value was 0/17 (0%) and the “Overdose: # Events” value was 1. For the same compound, the “Overdose: Affected/At Risk (%)” value was 1/17 (5.88%), the “Pain in extremity: # Events” value was 2 and the “Pain in extremity: Affected/At Risk (%)” value was 2/17 (11.76%). The “Pain: # Events” value was 3, the “Pain: Affected/At Risk (%)” value was 3/17 (17.65%) and the “Palpitations: # Events” value was 1. The “Palpitations: Affected/At Risk (%)” value was 1/17 (5.88%), the “Paraesthesia: # Events” value was 0 and the “Paraesthesia: Affected/At Risk (%)” value was 0/17 (0%). The “Pericardial effusion: # Events” value was 1, the “Pericardial effusion: Affected/At Risk (%)” value was 1/17 (5.88%) and the “Peripheral coldness: # Events” value was 1. For the same compound, the “Peripheral coldness: Affected/At Risk (%)” value was 1/17 (5.88%), the “Peripheral sensory neuropathy: # Events” value was 0 and the “Peripheral sensory neuropathy: Affected/At Risk (%)” value was 0/17 (0%). For the same compound, the “Phlebitis: # Events” value was 0, the “Phlebitis: Affected/At Risk (%)” value was 0/17 (0%) and the “Photophobia: # Events” value was 0. For the same compound, the “Photophobia: Affected/At Risk (%)” value was 0/17 (0%), the “Platelet count decreased: # Events” value was 3 and the “Platelet count decreased: Affected/At Risk (%)” value was 1/17 (5.88%). For the same compound, the “Pleural effusion: # Events” value was 1, the “Pleural effusion: Affected/At Risk (%)” value was 1/17 (5.88%) and the “Pneumonia respiratory syncytial viral: # Events” value was 0. The “Pneumonia respiratory syncytial viral: Affected/At Risk (%)” value was 0/17 (0%), the “Pneumonia: # Events” value was 2 and the “Pneumonia: Affected/At Risk (%)” value was 1/17 (5.88%). The “Pollakiuria: # Events” value was 1, the “Pollakiuria: Affected/At Risk (%)” value was 1/17 (5.88%) and the “Presyncope: # Events” value was 0. The “Presyncope: Affected/At Risk (%)” value was 0/17 (0%), the “Productive cough: # Events” value was 2 and the “Productive cough: Affected/At Risk (%)” value was 2/17 (11.76%). For the same compound, the “Proteinuria: # Events” value was 2, the “Proteinuria: Affected/At Risk (%)” value was 2/17 (11.76%) and the “Pruritus: # Events” value was 1. For the same compound, the “Pruritus: Affected/At Risk (%)” value was 1/17 (5.88%), the “Pseudomonas infection: # Events” value was 1 and the “Pseudomonas infection: Affected/At Risk (%)” value was 1/17 (5.88%). For the same compound, the “Pulmonary mass: # Events” value was 0, the “Pulmonary mass: Affected/At Risk (%)” value was 0/17 (0%) and the “Pyrexia: # Events” value was 3. For the same compound, the “Pyrexia: Affected/At Risk (%)” value was 1/17 (5.88%).
